Experimental data taken from patent US12398101B2, “Herbicidal 2-azaspiro[3-5]nonane compounds” (SYNGENTA CROP PROTECTION AG, priority 2018, dated 2025).

Key:
Type in all cases: in vivo
Settings in all cases: 250 g/h, evaluated after 13 days
Avena fatua (AVEFA) [1] = test: Glasshouse herbicide test, post-emergence application
Procedure: (§1) Seeds of a variety of test species are sown in standard soil in pots (Lolium perenne (LOLPE), Setaria faberi (SETFA), Echinochloa crus-galli (ECHCG), Avena fatua (AVEFA)). After cultivation for one day (pre-emergence) or after 8 days cultivation (post-emergence) under controlled conditions in a glasshouse (at 24/16° C., day/night; 14 hours light; 65% humidity), the plants are sprayed with an aqueous spray solution derived from the formulation of the technical active ingredient in acetone/water (50:50) solution containing 0.5% Tween 20 (polyoxyethelyene sorbitan monolaurate, CAS RN 9005-64-5). Compounds are applied at 250 g/h. The test plants are then grown in a glasshouse under controlled conditions in a glasshouse (at 24/16° C., day/night; 14 hours light; 65% humidity) and watered twice daily. After 13 days for pre and post-emergence, the test is evaluated for the percentage damage caused to the plant. The biological activities are shown in the following table on a five point scale (5=80-100%; 4=60-79%; 3=40-59%; 2=20-39%; 1=0-19%).

[2] = test system: Echinochloa crus-galli (ECHCG); test: as above
Procedure: as §1

Lolium perenne (LOLPE) [3] = test: as above
Procedure: as §1

Setaria faberi (SETFA) [4] = test: as above
Procedure: as §1

Avena fatua (AVEFA) [5] = test: Glasshouse herbicide test, pre-emergence application
Procedure: as §1

[6] = test system: Echinochloa crus-galli (ECHCG); test: as above
Procedure: as §1

Lolium perenne (LOLPE) [7] = test: as above
Procedure: as §1

Setaria faberi (SETFA) [8] = test: as above
Procedure: as §1

SMILES | percentage damage caused to the plant, five point scale, AVEFA (Avena fatua (AVEFA) [1]) | percentage damage caused to the plant, five point scale, ECHCG [2] | percentage damage caused to the plant, five point scale, LOLPE (Lolium perenne (LOLPE) [3]) | percentage damage caused to the plant, five point scale, SETFA (Setaria faberi (SETFA) [4]) | percentage damage caused to the plant, five point scale, AVEFA (Avena fatua (AVEFA) [5]) | percentage damage caused to the plant, five point scale, ECHCG [6] | percentage damage caused to the plant, five point scale, LOLPE (Lolium perenne (LOLPE) [7]) | percentage damage caused to the plant, five point scale, SETFA (Setaria faberi (SETFA) [8])
CC#Cc1cc(C)c(C2C(=O)CC3(CC2=O)CN(S(=O)(=O)CC)C3)c(OC)c1 [Compound 1.014] | 5 (5=80-100%) | 5 (5=80-100%) | 5 (5=80-100%) | 5 (5=80-100%) | 5 (5=80-100%) | 5 (5=80-100%) | 5 (5=80-100%) | 5 (5=80-100%)
CC#Cc1cc(C)c(C2=C(OC(=O)OC)CC3(CC2=O)CN(C(C)=O)C3)c(C)c1 [Compound 2.001, 2-acetyl-7-(2,6-dimethyl-4-prop-1-ynyl-phenyl)-6-oxo-2-azaspiro[3.5]non-7-en-8-yl] methyl carbonate] | 5 (5=80-100%) | 5 (5=80-100%) | 5 (5=80-100%) | 5 (5=80-100%) | 5 (5=80-100%) | 5 (5=80-100%) | 5 (5=80-100%) | 5 (5=80-100%)
CC#Cc1cc(Cl)c(C2C(=O)CC3(CC2=O)CN(C(=O)c2ccccc2)C3)c(OC)c1 [Compound 1.201] | 5 (5=80-100%) | 5 (5=80-100%) | 5 (5=80-100%) | 5 (5=80-100%) | 5 (5=80-100%) | 5 (5=80-100%) | 5 (5=80-100%) | 5 (5=80-100%)
CC#Cc1cc(C)c(C2C(=O)CC3(CC2=O)CN(C(=O)NC(C)(C)C)C3)c(C)c1 [Compound 1.006] | 5 (5=80-100%) | 5 (5=80-100%) | 5 (5=80-100%) | 5 (5=80-100%) | 2 (2=20-39%) | 5 (5=80-100%) | 5 (5=80-100%) | 5 (5=80-100%)
CC#Cc1cc(C)c(C2C(=O)CC3(CC2=O)CN(C(C)=O)C3)c(OC)c1 [Compound 1.013] | 5 (5=80-100%) | 5 (5=80-100%) | 5 (5=80-100%) | 5 (5=80-100%) | 5 (5=80-100%) | 5 (5=80-100%) | 5 (5=80-100%) | 5 (5=80-100%)
CC#Cc1cc(C)c(C2C(=O)CC3(CC2=O)CN(C(=O)CC#N)C3)c(OC)c1 [Compound 1.023] | 5 (5=80-100%) | 5 (5=80-100%) | 5 (5=80-100%) | 5 (5=80-100%) | 2 (2=20-39%) | 1 (1=0-19%) | 3 (3=40-59%) | 3 (3=40-59%)
CC#Cc1cc(C)c(C2C(=O)CC3(CC2=O)CN(C(=O)c2ccccc2)C3)c(C)c1 [Compound 1.003, 2-benzoyl-7-(2,6-dimethyl-4-prop-1-ynyl-phenyl)-2-azaspiro[3.5]nonane-6,8-dione] | 5 (5=80-100%) | 5 (5=80-100%) | 5 (5=80-100%) | 5 (5=80-100%) | 5 (5=80-100%) | 5 (5=80-100%) | 5 (5=80-100%) | 5 (5=80-100%)
